Series [1] addresses T1, Glutaminase kidney isoform, mitochondrial (Homo sapiens, UniProt O94925).
T1 sequence (O94925 whole entry): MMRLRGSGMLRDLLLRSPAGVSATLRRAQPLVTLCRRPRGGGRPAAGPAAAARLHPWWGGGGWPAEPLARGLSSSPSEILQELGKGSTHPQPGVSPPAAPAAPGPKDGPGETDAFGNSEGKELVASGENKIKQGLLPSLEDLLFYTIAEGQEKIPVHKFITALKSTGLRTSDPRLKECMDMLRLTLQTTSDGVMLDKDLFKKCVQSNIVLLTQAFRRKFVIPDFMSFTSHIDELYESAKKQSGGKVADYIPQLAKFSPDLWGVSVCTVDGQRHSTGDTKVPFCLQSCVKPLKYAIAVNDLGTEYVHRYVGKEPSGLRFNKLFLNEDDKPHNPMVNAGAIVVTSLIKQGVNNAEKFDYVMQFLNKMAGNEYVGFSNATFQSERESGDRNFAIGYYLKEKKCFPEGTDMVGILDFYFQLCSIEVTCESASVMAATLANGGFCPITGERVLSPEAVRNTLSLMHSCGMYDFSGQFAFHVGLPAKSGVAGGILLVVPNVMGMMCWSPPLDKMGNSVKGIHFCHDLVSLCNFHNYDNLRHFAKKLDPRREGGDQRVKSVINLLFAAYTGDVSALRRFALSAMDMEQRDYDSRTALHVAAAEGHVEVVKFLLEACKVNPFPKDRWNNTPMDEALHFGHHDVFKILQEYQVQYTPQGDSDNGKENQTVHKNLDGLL
The series can be described thus: Inhibition of C-terminal His-tagged human recombinant KGA transformed in Escherichia coli BL21 DE3 at pH 7.4 incubated for 3 hrs.

Series [2] can be described thus: Inhibition of human recombinant Glutaminase.
Series [3] can be described thus: Inhibition of N-terminal 6His-tagged recombinant rat glutaminase expressed in Escherichia coli BL-21 DE3 measured after 20 mins by colorimetric analysis.
The test system of another series is SW1990. The series can be described thus: Antiproliferative activity against human SW1990 cells assessed as reduction in cell viability measured after 72 hrs by CCK-8 assay. The format is functional, cell-based. Conditions: SW1990, 72 h.
Series [4] is described as follows: Lipophilicity, logP of the compound at pH 7.4 by HPLC analysis. The class given is physicochemical. Conditions: buffer.
A short description of series [5]: Inhibition of 6His-tagged recombinant mouse GAC expressed in Escherichia coli preincubated for 10 mins and measured after 45 mins by chromatographic analysis.
Series [6] has as its target T1, Glutaminase kidney isoform, mitochondrial. The series can be described thus: Inhibition of N-terminal His-tagged GLS1 (unknown origin) expressed in Escherichia coli BL21 (DE3) preincubated for 20 mins and measured after 2 hrs.
The target is the same in series [7]. The series can be described thus: Inhibition of full length C terminal His-tagged human KGA expressed in Escherichia coli BL-21 DE3.
Another series has as its system HCC1806. The series can be described thus: Cytotoxicity against human HCC1806 cells assessed as reduction in cell viability measured after 48 hrs by MTT assay. The class given is functional, cell-based. Conditions: HCC1806, 48 h. Background: Tetrazolium assays rely on reduction of a dye to a coloured formazan, in cell work by metabolically active cells.
Series [8] in a line: Inhibition of N-terminal Histidine-tagged recombinant mouse GAC incubated for 1 hrs by fluorescence based analysis.
A short description of series [9]: Inhibition of full length C-terminal His-tagged rat Glutaminase expressed in Escherichia coli BL21 DE3 incubated for 12 hrs.
Series [10] in a line: Inhibition of human Glutaminase.

pIC50: −log10 of the molar value.

Broadly, the pIC50 is the IC50 on a negative log10 scale, so that one unit is a factor of ten. For `O=c1c2ccccc2[se]n1CCCCCCn1[se]c2ccccc2c1=O`, the pIC50 in [1] was 6.70.

On to `CN(C)c1ccc(C2Nc3ccc4ccccc4c3C3=C2C(=O)CC(C)(C)C3)cc1Br` (stereo not drawn), for which the pIC50 in series [2] is around 5.03.

Broadly, the logP is a log measure of how a compound divides between an organic and an aqueous phase. Read a high logP as a more lipophilic compound. In the case of `O=C(Cc1ccccc1)Nc1nnc(CCSCCc2nnc(NC(=O)Cc3ccccc3)s2)s1`, the pIC50 in series [3] was 5.48; in the series on SW1990, 4.45. Further, the logP in [4] amounted to 3.73.

As for `O=C(Cc1cccc(OC(F)(F)F)c1)Nc1ccc(CCCCc2nnc(NC(=O)Cc3ccccn3)s2)nn1`, the pIC50 in the series with SW1990 is 4.88. This compound had a logP in series [4] of 2.72.

On to `CN(C)c1ccc(C2Nc3ccc4ccccc4c3C3=C2C(=O)CC(C)(C)C3)cc1` (stereo not drawn), for which the pIC50 in series [5] is around 4.30.

For `CC(C)c1ccc(C2Nc3ccc4ccccc4c3C3=C2C(=O)CC(C)(C)C3)cc1` (stereo not drawn), the pIC50 in [5] is around 4.70.

`CC1(C)CC(=O)C2=C(C1)c1c(ccc3ccccc13)NC2c1ccc(C(C)(C)C)cc1` (stereo not drawn): the pIC50 in series [5] was around 5.00.

Compound `O=C(Cc1ccccc1)Nc1nnc([C@@H]2CCC[C@@H](c3nnc(NC(=O)Cc4ccccc4)s3)C2)s1` had a pIC50 in series [6] of 7.00.

Consider `C=C1CC[C@]2(C(=O)O[C@@H]3O[C@H](CO[C@@H]4O[C@H](CO)[C@@H](O)[C@H](O)[C@H]4O)[C@@H](O)[C@H](O)[C@H]3O)CC[C@]3(C)C(=CCC4[C@@]5(C)CC[C@H](O[C@@H]6OC[C@H](O[C@@H]7OC[C@H](O)[C@H](O)[C@H]7O[C@@H]7O[C@@H](C)[C@H](O)[C@@H](O)[C@H]7O)[C@H](O)[C@H]6O)C(C)(C)C5CC[C@]43C)C2C1` (stereo partly drawn), for which the pIC50 in series [7] was 5.21; with HCC1806, 4.60.

Take `CN(C)c1ccc(C2Nc3ccc4cc(C(C)(C)C)ccc4c3C3=C2C(=O)CC(C)(C)C3)cc1Br` (stereo not drawn): in series [8], the negative logarithm of the IC50 (pIC50) is 5.35.

Take `CC1(C)CCc2c(ccc3c2O[C@@H]2c4ccc(O)cc4O[C@H]3[C@H]2O)O1`: in series [9], the pIC50 was 4.44.

Consider `CN1CCc2cccc3c2[C@H]1Cc1ccc(O)c(O)c1-3` [APOMORPHINE], for which, in series [10], the pIC50 is 6.22.

For `COc1ccc2c(c[n+](C)c3c4cc5c(cc4ccc23)OCO5)c1OC` [CHELERYTHRINE CHLORIDE], the pIC50 in series [10] is 7.52.

In series [10], `O=c1c2ccccc2[se]n1-c1ccccc1` [EBSELEN] gave a pIC50 of 8.05.
